Values quoted from earlier work as cited in US11752185B2, “Powderized cannabis oil” (Hemp Synergistics, priority 2020, dated 2023).

Details: clinical studies; EPIDIOLEX context: seizures associated with Lennox-Gastaut syndrome or Dravet syndrome

Structure (SMILES): C=C(C)[C@@H]1CCC(C)=C[C@H]1c1c(O)cc(CCCCC)cc1O [CBD, cannabidiol]
- therapeutic dose: 10 mg/kg/day
